Species: Homo sapiens
Assay: In vitro inhibition of platelet aggregation by measuring its effect on the ADP-stimulated aggregation of human platelets
Type: functional

Structure (SMILES) | IC50
CCCCS(=O)(=O)NC(CCCc1ccc2c(c1)c(=O)n(CCC1CCNCC1)c(=O)n2C)C(=O)O (configuration not stated) | 140 nM
CCCCS(=O)(=O)NC(CCCc1ccc2c(c1)c(=O)n(CCC1CCNCC1)c(=O)n2Cc1ccccc1)C(=O)O (configuration not stated) | 160 nM
CCCCS(=O)(=O)NC(CNC(=O)c1ccc2[nH]c(=O)n(CCC3CCNCC3)c(=O)c2c1)C(=O)O (configuration not stated) | 210 nM
CCCCS(=O)(=O)NC(CC#Cc1ccc2c(c1)c(=O)n(CCC1CCNCC1)c(=O)n2C)C(=O)O (configuration not stated) | 67 nM
CCCCS(=O)(=O)NC(CC#Cc1ccc2c(c1)c(=O)n(CCC1CCNCC1)c(=O)n2Cc1ccncc1)C(=O)O (configuration not stated) | 74 nM
CCCCS(=O)(=O)NC(CC#Cc1ccc2c(c1)c(=O)n(CCC1CCNCC1)c(=O)n2Cc1ccccc1)C(=O)O (configuration not stated) | 61 nM
CCCCS(=O)(=O)NC(CCCc1ccc2c(c1)c(=O)n(CCC1CCNCC1)c(=O)n2Cc1ccncc1)C(=O)O (configuration not stated) | 100 nM
CCCCS(=O)(=O)NC(CCCc1ccc2[nH]c(=O)n(CCC3CCNCC3)c(=O)c2c1)C(=O)O (configuration not stated) | 160 nM

These reach a lower IC50. Values come first.

IC50 | Structure (SMILES)
43 nM | CCCCS(=O)(=O)NC(CC#Cc1ccc2nc(C)n(CCC3CCNCC3)c(=O)c2c1)C(=O)O (configuration not stated)
37 nM | CCCCS(=O)(=O)NC(CC#Cc1ccc2[nH]c(=O)n(CCC3CCNCC3)c(=O)c2c1)C(=O)O (configuration not stated)
15 nM | CCCCS(=O)(=O)N[C@@H](Cc1ccc(OCCCCC2CCNCC2)cc1)C(=O)O
9 nM | CCCCS(=O)(=O)N[C@@H](CNC(=O)c1ccc2c(c1)C(=O)N(CCC1CCNCC1)C2)C(=O)O

Reference: ChEMBL document CHEMBL1130763, “Nonpeptide glycoprotein IIb/IIIa inhibitors: substituted quinazolinediones and quinazolinones as potent fibrinogen receptor antagonists” (Bioorg Med Chem Lett, 1998)
